In patent US10106542B2, “Substituted 6,7-dihydropyrazolo[1,5-a]pyrazines as negative allosteric modulators of mGluR2 receptors” (Janssen Pharmaceutica NV, priority 2013, dated 2018):

Key:
[1] = system: rats; assay: Reversal of the effect of the mGluR2 PAM JNJ-42153605 on scopolamine-induced hyperlocomotion; assay type: in vivo; details: Rattus norvegicus, 1 h, Route PO, test compound 60 min before recording, criterion total distance >1500 cm
Description: 2) Reversal of the Effect of the mGluR2 PAM JNJ-42153605 on Scopolamine-Induced Hyperlocomotion Apparatus
Motor activity was measured in microprocessor-based motor activity arenas (closed gray PVC cylinders with a height of 39 cm and a diameter of 31 cm). Each arena was placed on an infrared LED (8×8 LEDs) lit box (white PVC squared box; 40×40 cm^2; height 12.5 cm. An infrared-sensitive tube camera and a white light source were mounted to the ceiling above the observation chamber to track the animal. The total distance traveled (cm) was recorded and analyzed using the Noldus Ethovision XT Video Tracking System (Version 7.0.418; Noldus, Wageningen, The Netherlands). The intensity of the light within the activity cages (measured in the centre at the level of the floor) ranged between 4 and 8 LUX.
The rats were pretreated with test compound or vehicle at 60 min before the start of the activity recordings and placed into individual cages. The rats were challenged with JNJ-42153605 (3-(cyclopropylmethyl)-7-(4-phenylpiperidin-1-yl)-8-(trifluoromethyl)[1,2,4]triazolo[4,3-a]pyridine; WO2010/130424; Cid et al. J. Med. Chem. 2012, 55, 8770-8789) (20 mg/kg, i.v.) 30 min before the start of the activity recording combined with scopolamine (0.16 mg/kg, i.v.) just before the start of the activity measurements Immediately after the injection of scopolamine, the rats were placed into the activity monitors and total distance travelled over the first 30 min was measured.
Animals receiving the combination of JNJ-42153605 and scopolamine (n=433) almost always travelled a distance of less than 1500 cm (<1500 cm) (only 2.5% of the control rats travelled a distance of more than 1500 cm (>1500 cm)). On the other hand, animals challenged with scopolamine alone (n=215) always travelled a total distance of more than 1500 cm (>1500 cm) and almost always (in 95.8% of the rats) a distance of more than 4400 cm (>4400 cm). […] For reversal of the inhibitory effect of JNJ-42153605 on the scopolamine-induced hyperlocomotion, two all-or-none criteria were adopted: (1) reversal: total distance >1500 cm; (2) normalization: total distance >4400 cm.

[2] = system: Wiga rats; assay: Reserpine interaction test in rats; assay type: in vivo, rat; details: Rattus norvegicus, po; Time 60; reserpine 10 mg/kg SC; Wiga rats; read-out: ED50, reversal of reserpine-induced ptosis
Description: 4) Reserpine Interaction Test in Rats
It was investigated to what extent the mydriatic action of test compounds was sufficient to counteract the miosis induced by the monoamines-depleting agent reserpine (10 mg/kg; SC) in Wiga rats.
The effects are illustrated in FIG. 3. […] The reference mGlu2 NAMs RO-4995819 (40 mg/kg, p.o.), RO-4491533 (40 mg/kg, p.o.; 10 mg/kg, s.c.) and [CAS 579473-69-1]

[3] = system: Male Wiga Wistar rats; assay: Reversal of LY-404039-induced decrease of palpebral opening in apomorphine-challenged rats; assay type: in vivo; details: Rattus norvegicus, Route PO; reversal of LY-404039-induced decrease of palpebral opening (cumulative score >26) in apomorphine challenged rats
Description: 6) Reversal of LY-404039-Induced Decrease of Palpebral Opening in Apomorphine-Challenged Rats.
Male Wiga Wistar rats (Crl:WI; Charles River Germany; 220±40 g) were housed under standard laboratory conditions (21±2° C.; 50-65% relative humidity; light-dark cycle set at 12 h; lights on at 6.00 h) and fasted overnight prior to the start of the experiments (tap water remained available ad libitum). During the test period, they were housed in individual cages. The local Ethical Committee approved all studies in compliance with the Declaration of Helsinki. Palpebral opening was scored every 5 min over the first hour after injection of apomorphine (1.0 mg/kg, i.v.) in animals either pretreated or not pretreated with LY-404039 (2.5 mg/kg, s.c.) at 1 h prior to the apomorphine injection. The animals were also pretreated with test compound or solvent at a predefined interval before apomorphine challenge. The score system was: (5) exophthalmos, (4) wide open, (3) open for three-quarters, (2) half open, (1) open for one-quarter, (0) closed. The scores for palpebral opening were cumulated over the 60-min observation period. A cumulative palpebral opening score >26 was selected for drug-induced reversal of the LY-404039-induced decrease of palpebral opening (occurrence in 3.2% of control animals pretreated with LY-404039 (n=154) versus in 99.5% of control rats not pretreated with LY-404039 (n=6335)).
In animals receiving apomorphine alone the median palpebral opening is 43 whereas in animals receiving apomorphine and LY-404039, the median palpebral opening is 17.

[4] = system: rat hippocampal brain slices; assay: Reversal of mGluR2-agonism (LY-354740-depressed fEPSP) in hippocampal brain slices; assay type: cell-based
Description: 7) Reversal of mGluR2-Agonism in Hippocampal Brain Slices Introduction
Electrophysiology recordings of field excitatory postsynaptic potentials (fEPSPs) in acute hippocampal brain slices represent a model for testing synaptic transmission and plasticity. The effect of Co. No. 1 on synaptic transmission and plasticity in dentate gyms synapses was investigated using this model.
Recordings of fEPSPs were made from hippocampal brain slices using a multi-electrode array (MEA) biochip, and 3-dimensional-(3D) tip electrodes, according to a standard protocol. These recordings were used to monitor glutamate-mediated synaptic transmission (FIG. 4).

Structure (SMILES) | ED50 [1] | ED50 [2] | ED50 [3] | paired-pulse ratio (PPR) ([4]; 1 μM LY-354740) | depression of fEPSP ([4]; 1 μM, within 15 min of application, dentate gyrus)
C[C@H]1CN(c2ccc(C(F)(F)F)cc2)C(=O)c2c(-c3ccncc3)cnn21 [compound 2, (7S)-7-Methyl-3-pyridin-4-yl-5-[4-(trifluoromethyl)phenyl]-6,7-dihydropyrazolo [1,5-a]pyrazin-4(5H)-one] | 1.26 mg/kg | 0.32 mg/kg | 0.5 mg/kg |  | 
N[C@@]1(C(=O)O)CC[C@H]2[C@H](C(=O)O)[C@H]21 [LY-354740, reference compound] |  |  |  | increase of the paired-pulse ratio | 50%
